These results are taken from ChEMBL document CHEMBL1201862, “PubChem BioAssay data set” (2004).

Test [1] is described as follows: cells. The format is functional, cell-based.
Test [2] can be described thus: cells. The format is functional, cell-based. This is another data set of the same source.
Test [3] is described as follows: cells. Format: functional, cell-based. This is another data set of the same source.
The nature of test [4]: cells. Format: functional, cell-based. This is another data set of the same source.
Test [5] can be described thus: HEK293T cytotoxicity, dose response, cytotoxicity control for miR-122 modulator project, cell-based, activator set, cherry-pick (AID 720690).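 Note: HEK293T human cells scored for general mammalian cytotoxicity.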 Format: functional.
For the next test, the system named is Streptococcus. As to the kind of experiment: Group A Streptococcus viability loss, dose response, counter-screen for streptokinase expression inhibitor project, luminescence, BacTiterGlo (AID 1915).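 Note: potency for reduction of bacterial viability or growth.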 Format: functional, organism-based. (The purpose of a counterscreen is to sort out artefacts and off-target activity.)
Test [6] can be described thus: human group III sPLA2 inhibitors, dose response, biochemical, QFRET, IC50 (AID 743457).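 Note: green fluorescence rise as the enzyme cleaves BODIPY PC-A2 in liposomes; potency for inhibition of the enzyme.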
Test [7] deals with Streptococcus sp. 'group A'. As to the kind of experiment: growth inhibition of control SK(-) GAS strain, dose response, counter-screen for streptokinase expression inhibitor project, luminescence, kanamycin, BacTiterGlo, confirmation (AID 1900). Format: functional, organism-based.
The target of test [8] is T1, Sentrin-specific protease 1 (Homo sapiens, UniProt Q9P0U3).
T1 sequence (Q9P0U3 whole entry): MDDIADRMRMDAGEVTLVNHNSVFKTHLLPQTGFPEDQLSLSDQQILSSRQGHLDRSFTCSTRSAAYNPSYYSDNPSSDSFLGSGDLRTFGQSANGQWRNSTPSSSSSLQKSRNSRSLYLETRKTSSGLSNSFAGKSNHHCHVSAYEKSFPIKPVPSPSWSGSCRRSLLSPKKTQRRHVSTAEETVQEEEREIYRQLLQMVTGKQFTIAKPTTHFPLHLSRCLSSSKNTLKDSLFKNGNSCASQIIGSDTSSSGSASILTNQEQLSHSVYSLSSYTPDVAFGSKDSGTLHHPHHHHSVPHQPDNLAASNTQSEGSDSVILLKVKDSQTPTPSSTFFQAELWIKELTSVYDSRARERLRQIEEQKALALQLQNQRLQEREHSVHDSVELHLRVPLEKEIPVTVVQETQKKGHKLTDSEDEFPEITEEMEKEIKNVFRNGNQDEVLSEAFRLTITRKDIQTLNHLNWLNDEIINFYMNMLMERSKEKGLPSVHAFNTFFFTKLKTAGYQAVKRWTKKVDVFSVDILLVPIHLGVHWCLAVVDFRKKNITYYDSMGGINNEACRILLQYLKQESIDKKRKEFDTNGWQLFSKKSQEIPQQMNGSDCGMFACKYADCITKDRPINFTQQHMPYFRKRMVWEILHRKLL
Put plainly: Dose response confirmation of small molecule inhibitors of the catalytic domain of the SUMO protease, SENP1 in a FRET assay. The format is functional. Conditions: read-out: IC50_Mean.

The target in test [9] is T2, Endoribonuclease toxin MazF (Escherichia coli K-12, UniProt P0AE70).
T2 sequence (P0AE70 whole entry): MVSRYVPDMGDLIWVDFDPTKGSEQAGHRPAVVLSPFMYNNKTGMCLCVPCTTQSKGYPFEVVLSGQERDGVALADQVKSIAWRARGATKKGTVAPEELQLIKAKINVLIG
As to the kind of experiment: MazF toxin RNase activators, dose response, biochemical, fluorescence, single-stranded RNA substrate, uHTS hits (AID 588481). Format: functional.

Test [10] addresses T2, Endoribonuclease toxin MazF. Put plainly: fluorescent RNA oligo signal without MazF, dose response, counter-screen for MazEF activator project, biochemical, fluorescence, single-stranded RNase substrate (AID 588502). Format: functional.
Test [11] in a line: HEK293T cytotoxicity, dose response, cytotoxicity control for miR-122 modulator project, cell-based, inhibitor set, cherry-pick, set 2 (AID 720697). The format is functional.
The nature of test [12]: cells. The format is functional, cell-based. Conditions: HEK-CNG.
In a further test the target is Galanin receptor type 3 (Homo sapiens, UniProt O60755). As to the kind of experiment: Fluorescence-based cell-based primary high throughput dose response assay to identify antagonists of the Galanin Receptor 3 (GalR3). Format: functional.
Chain of Galanin receptor type 3 (O60755 whole entry): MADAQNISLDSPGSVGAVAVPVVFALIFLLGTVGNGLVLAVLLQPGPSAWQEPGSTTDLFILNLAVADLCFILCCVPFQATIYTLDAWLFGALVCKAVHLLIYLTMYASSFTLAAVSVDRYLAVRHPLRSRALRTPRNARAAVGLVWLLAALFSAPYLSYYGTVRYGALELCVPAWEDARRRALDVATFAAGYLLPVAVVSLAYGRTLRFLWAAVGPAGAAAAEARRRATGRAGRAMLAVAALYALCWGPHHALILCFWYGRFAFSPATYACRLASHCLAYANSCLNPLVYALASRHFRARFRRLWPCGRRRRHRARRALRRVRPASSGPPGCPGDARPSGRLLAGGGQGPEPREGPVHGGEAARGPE
A short description of test [13]: AlphaScreen signal interference compounds, dose response, artefact control for ARNT-TACC3 interaction inhibitor project, biochemical, luminescence, cherry-pick (AID 651705).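 Note: AlphaScreen bead proximity signal that flags compounds interfering with the detection technology; potency reflects signal decrease which marks the compound as an assay artifact.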 Format: functional. A general note: In Alpha technology, singlet oxygen from a donor bead excites a nearby acceptor bead.
The target of test [14] is T3, Histone-lysine N-methyltransferase NSD2 (Homo sapiens, UniProt O96028).
T3 sequence (O96028 whole entry): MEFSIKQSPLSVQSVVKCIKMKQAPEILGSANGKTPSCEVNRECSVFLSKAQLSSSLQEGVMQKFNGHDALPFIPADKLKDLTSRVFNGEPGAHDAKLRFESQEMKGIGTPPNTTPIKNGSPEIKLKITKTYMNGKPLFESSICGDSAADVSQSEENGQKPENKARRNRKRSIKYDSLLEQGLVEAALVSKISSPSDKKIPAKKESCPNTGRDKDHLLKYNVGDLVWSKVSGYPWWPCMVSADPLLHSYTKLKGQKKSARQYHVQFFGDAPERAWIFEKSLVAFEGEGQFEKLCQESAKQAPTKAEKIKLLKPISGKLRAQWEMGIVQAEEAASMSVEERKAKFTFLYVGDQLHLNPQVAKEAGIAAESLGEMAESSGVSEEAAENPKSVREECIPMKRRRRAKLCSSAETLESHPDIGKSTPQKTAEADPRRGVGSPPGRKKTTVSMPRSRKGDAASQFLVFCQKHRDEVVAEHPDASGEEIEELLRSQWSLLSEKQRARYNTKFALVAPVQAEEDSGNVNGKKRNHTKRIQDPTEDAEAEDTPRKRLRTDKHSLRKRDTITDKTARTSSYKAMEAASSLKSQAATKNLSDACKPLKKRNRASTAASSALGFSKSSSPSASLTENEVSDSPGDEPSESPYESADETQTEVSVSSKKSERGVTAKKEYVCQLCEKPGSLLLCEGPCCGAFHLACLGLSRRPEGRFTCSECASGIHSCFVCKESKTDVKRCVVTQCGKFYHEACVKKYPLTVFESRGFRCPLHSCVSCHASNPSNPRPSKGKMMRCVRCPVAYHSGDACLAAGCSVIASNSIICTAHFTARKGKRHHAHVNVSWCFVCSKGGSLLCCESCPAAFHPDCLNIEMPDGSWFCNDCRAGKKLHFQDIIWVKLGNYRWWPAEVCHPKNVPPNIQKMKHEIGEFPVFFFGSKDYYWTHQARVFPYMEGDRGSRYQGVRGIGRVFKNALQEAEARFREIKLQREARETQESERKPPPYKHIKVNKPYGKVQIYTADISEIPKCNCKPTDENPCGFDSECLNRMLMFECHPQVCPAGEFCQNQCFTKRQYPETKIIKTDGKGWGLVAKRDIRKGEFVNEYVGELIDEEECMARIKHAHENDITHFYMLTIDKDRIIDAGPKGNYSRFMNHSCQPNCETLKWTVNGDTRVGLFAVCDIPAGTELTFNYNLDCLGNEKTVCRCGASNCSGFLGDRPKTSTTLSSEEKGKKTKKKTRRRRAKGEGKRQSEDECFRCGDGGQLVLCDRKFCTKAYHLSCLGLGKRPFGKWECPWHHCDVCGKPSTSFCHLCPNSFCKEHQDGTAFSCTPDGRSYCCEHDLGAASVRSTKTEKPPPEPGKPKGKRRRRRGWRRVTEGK
The format is biochemical.

Test [15] deals with T4, Rac GTPase-activating protein 1 (Homo sapiens, UniProt Q9H0H5).
T4 sequence (Q9H0H5 whole entry): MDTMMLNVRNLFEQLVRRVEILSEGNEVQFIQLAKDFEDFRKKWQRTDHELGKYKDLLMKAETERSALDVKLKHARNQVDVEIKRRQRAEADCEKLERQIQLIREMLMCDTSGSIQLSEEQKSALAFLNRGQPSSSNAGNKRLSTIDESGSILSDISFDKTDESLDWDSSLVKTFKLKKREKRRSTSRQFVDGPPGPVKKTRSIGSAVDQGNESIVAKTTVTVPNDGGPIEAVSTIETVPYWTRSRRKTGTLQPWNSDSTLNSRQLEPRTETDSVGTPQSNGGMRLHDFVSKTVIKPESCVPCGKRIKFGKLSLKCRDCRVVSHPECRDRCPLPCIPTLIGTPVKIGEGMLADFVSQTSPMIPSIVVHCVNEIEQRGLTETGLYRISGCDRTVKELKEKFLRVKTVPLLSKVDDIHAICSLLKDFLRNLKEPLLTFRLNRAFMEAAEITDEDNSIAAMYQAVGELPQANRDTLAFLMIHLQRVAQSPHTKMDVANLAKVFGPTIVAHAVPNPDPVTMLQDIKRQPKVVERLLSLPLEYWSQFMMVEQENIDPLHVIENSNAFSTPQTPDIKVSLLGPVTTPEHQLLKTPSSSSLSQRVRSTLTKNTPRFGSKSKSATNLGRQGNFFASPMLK
Put plainly: MgcRacGAP GTPase-activating activity inhibitors, confirmation, biochemical, ADP Hunter fluorescence, primary and confirmatory (AID 624330). The format is functional.

The nature of test [16]: HeLa cell cytotoxicity, dose response, cytotoxicity control for MgcRacGAP inhibitor project (AID 624300). The format is functional.
Test [17] deals with T5, Tyrosyl-DNA phosphodiesterase 2 (Homo sapiens, UniProt O95551).
T5 sequence (O95551 whole entry): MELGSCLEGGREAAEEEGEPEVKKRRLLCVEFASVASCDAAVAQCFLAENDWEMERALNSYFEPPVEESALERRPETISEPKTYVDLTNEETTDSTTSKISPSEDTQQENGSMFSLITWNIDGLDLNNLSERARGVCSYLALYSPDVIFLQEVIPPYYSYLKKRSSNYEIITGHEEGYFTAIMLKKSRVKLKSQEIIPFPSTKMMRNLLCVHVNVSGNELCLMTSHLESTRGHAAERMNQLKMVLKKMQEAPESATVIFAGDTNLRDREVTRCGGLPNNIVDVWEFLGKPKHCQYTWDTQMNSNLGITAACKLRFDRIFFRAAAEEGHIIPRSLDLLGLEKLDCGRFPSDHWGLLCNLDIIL
Put plainly: human TDP2 enzyme inhibitors, dose response, biochemical, epi absorbance, IC50 (AID 743297).

The source made the active and inactive calls.

For the compound `CCN1CN(CCc2ccccc2)CN=C1S`, in “cells [1]”, the IC50 was > 29.9 µM (inactive). Besides, the EC50 (as a rule, the concentration at which the effect is half-maximal) in “cells [2]” is > 350 µM (not active); in the test “cells [3]”, > 350 µM (not active); in the test “cells [4]”, > 29.9 µM (inactive).

As for `CC(=O)c1ccc(Nc2nc3ccc(C)cc3n3cnnc23)cc1`, the AC50 (commonly the concentration at which the activity in the assay is half-maximal) in test [5] is 0.551 µM (active).

As for `O=C(Cc1ccccc1)NNC(=S)NC(=O)c1cccs1`, the EC50 was 7.51 µM (active) with Streptococcus and 3.33 µM (active) in test [7]. Besides, the IC50 in test [6] was > 122 µM (inactive).

`Oc1ccc(Cl)cc1C1=Nc2ccccc2N=C(c2ccco2)C1`: the IC50 in [8] is 8.31 µM (active). The EC50 in [9] and in test [10] was > 99 µM (inactive) throughout.

In the case of `C=CCNC(=S)NNC(=O)Cn1c(-c2ccccc2)cc(=O)n2ncnc12`, the concentration at half-maximal activity (AC50) in [11] is 4.83 µM (active).

For `CSc1ccc(CN2CCN(C(=O)c3ccc([N+](=O)[O-])cc3)CC2)cc1`, the EC50 in the test “cells [12]” is > 29.9 µM (inactive). Further, the IC50 on Galanin receptor type 3 was 1.91 µM (active).

On to `CCn1c(S)nnc1-c1csc(C(C)C)c1`, for which, in test [6], the IC50 is > 122 µM (inactive).

Regarding `COc1cc(CCNC2=CC(=O)c3ncccc3C2=O)ccc1O`, the AC50 in test [13] is 82.2 µM (active); in [14], 1.24 µM (active). For the same compound, the IC50 was 62.2 µM (active) in test [15] and 67.8 µM (inactive) in test [17]. Moreover, in test [16], the cytotoxic concentration (CC50) (in general, the concentration that lowers cell viability or growth by half) was 21.3 µM (active).
